Experimental data from US20070259866A1, “Method of Adenovirus, HIV and HPV Prophylaxis” (priority 1999, published 2007).

Tests used:
[1] = system: NL-HX-ADA (molecularly cloned macrophage-tropic type of HIV-1); assay: Extended dose response for inactivation of HIV-1 by CTC96, fluorescent focus assay in PBMCs; assay type: cell-based; conditions: 1 hour
Experimental: • Stock virus: NL-HX-ADA ˜5.5 μg/ml p24 (This is a molecularly cloned macrophage-tropic type of HIV-1). Virus was used to infect cells at 1:4,000 final dilution (˜1.4 ng/ml p24). Stock CTC-96: 10 mg/ml prepared directly in RPMI 1640 Method: Concentrated stock solution of virus was treated for 1 hour with equal volume of medium containing the drug at the indicated concentrations (1:2 dilution). The virus/drug mixture was then diluted 1,000-fold (1:2,000 dilution) and then added to an equal volume of PHA-activated humans PBMCs (1:4,000 final dilution) to allow virus replication to occur. The extent of infection was measured after 4 days by a fluorescent focus assay and compared to that of a control culture not containing any drug.

[2] = system: human papillomavirus type 11 (HPV-11); assay: HPV-11 pre-treated with CTC 96, subcutaneous human foreskin xenograft infection model in SCID mouse, graft size; assay type: in vivo; conditions: for cGMD of the Grafts, Lower Quartile / cGMD of the Grafts, Median / cGMD of the Grafts, Upper Quartile: 12 weeks; for Composite Geometric Mean Diameters (cGMD) of the Grafts, Means: grafts at 12 weeks, replicates 1, 3, 4
Experimental: The activity of CTC 96 on human papillomavirus type 11 (HPV-11) prior to infection was tested by using a subcutaneous human xenograft infection model in the severe combined immunodeficiency (SCID) mouse.
Three different concentrations, 1%, 0.2% and 0.05%, of CTC 96 and a control (normal saline) were evaluated in HPV-11-infected internal human xenograft in the SCID mouse. The viral suspension was exposed for one hour with one of the four CTC 96 concentrations before being used to infect the human foreskin grafts.
Each experiment was done in quadruplicate. Twelve mice were used in each replicate. For each replicate, the four treatment groups were made of 3 mice (3 animals per cage). Each mouse received under the skin of each flank one HPV-11-infected foreskin fragment. Two foreskin donors were used, one for the fragments implanted under the left flank and a different one for the fragments implanted under the right flank. The HPV-11-infected grafts were left to grow for 12 weeks, while the mice weights were monitored every other week. At the end of the 12 weeks, the animals were sacrificed and the grafts recovered, measured and processed.
CTC 96 was applied to the virus directly, prior to infection. Just prior to exposure of the virus to CTC 96, 750 μl of normal saline was added to a vial containing 15 mg of dry CTC 96. The resulting solution contained 2% of CTC 96.
CTC 96 was incubated for 1 hour at 37° C. with the viral suspension, which was then used to infect the human foreskin fragments.
Neonatal foreskins from routine circumcision were collected at the nursery of a local hospital and placed in transport medium (Minimum Essential Medium, penicillin 25,000 U/ml, streptomycin 25 mg/mL), In a Petri dish, the foreskin's occluded side was removed using a scalpel, leaving the exposed skin prepared as a split-thickness graft. The foreskin was punched out using a 3 mm biopsy punch. One fragment was fixed in buffered formalin to serve as control in the histologic and immunocytochemical analyses. 3-4 fragments were snap frozen in liquid nitrogen, to serve as controls in the RT-PCR assay. The other fragments were split equally into four groups. Each group of fragments was dispensed in one of the vials containing 500 μl of pretreated viral suspension.
Two foreskin donors collected within 24 hours of the procedure, were used in each replicate experiment. Each viral suspension received the foreskin fragments of both foreskin donors. To recognize the foreskin donors, in each experiment we used […]. The fragments were vortexed in the suspension and left to incubate for 60 minutes at 37° C. before being grafted.
For the grafting, the mouse was anesthetized in an anesthesia chamber with 5% halothane to 2 liters of oxygen, until no corneal or pedal reflexes could be elicited. The animal was removed from the chamber, and the halothane adjusted to 2-2.5% to 1 liter of oxygen for continued administration via nose cone for the duration of the surgical procedure. The animals ears were notched for identification. The back skin was prepped with a povidone iodine swab. A 1 cm vertical incision of the skin was made on the flank with scissors. Through that incision, the subcutis was bluntly dissected with closed scissors caudad to the wound. One foreskin fragment from the […] donor was inserted in the caudad pocket, epidermis facing the mouse's skin, mucosal side in contact with the musculo-fascial plane (panniculus camosus) of the mouse. The incision was closed with two metal clips. The other side was grafted in the same manner with one foreskin fragment from the […] donor.
The animals were otherwise sacrificed by cervical dislocation 12 weeks after graft implantation. Length, width, and height of the graft were measured and recorded. The graft were then removed and split in at least two parts. One part was fixed in buffered formalin. […]

CC1=CC(C)=[N+]2CC[N+]3=C(C)C=C(C)[O][Co-4]23([n+]2cc[nH]c2C)([n+]2cc[nH]c2C)[O]1.[Br-] [Compound 96]
% Neutralization ([1]; Batch A: [CTC96] during incubation with virus 5 mg/ml (initial 10 mg/ml; after final dilution 2.5 ng/ml)): 100% | % Neutralization ([1]; Batch B: [CTC96] during incubation with virus 2.5 mg/ml (initial 5 mg/ml; after final dilution 1.25 ng/ml)): 100% | % Neutralization ([1]; Batch C: [CTC96] during incubation with virus 1.25 mg/ml (initial 2.5 mg/ml; after final dilution 0.61 ng/ml)): 100% | % Neutralization ([1]; Batch D: [CTC96] during incubation with virus 0.625 mg/ml (initial 1.25 mg/ml; after final dilution 0.31 ng/ml)): 100% | % Neutralization ([1]; Batch E: [CTC96] during incubation with virus 0.312 mg/ml (initial 0.6 mg/ml; after final dilution 0.156 ng/ml)): 83% | % Neutralization ([1]; Batch F: [CTC96] during incubation with virus 0.156 mg/ml (initial 0.3 mg/ml; after final dilution 0.078 ng/ml)): 63% | % Neutralization ([1]; Batch G: [CTC96] during incubation with virus 0.078 mg/ml (initial 0.156 mg/ml; after final dilution 0.039 ng/ml)): 55% | % Neutralization ([1]; Batch H: [CTC96] during incubation with virus 0.039 mg/ml (initial 0.078 mg/ml; after final dilution 0.019 ng/ml)): 18% | % Neutralization ([1]; Batch I: [CTC96] during incubation with virus 0.019 mg/ml (initial 0.039 mg/ml; after final dilution 0.009 ng/ml)): 1% | % Neutralization ([1]; Batch J: [CTC96] during incubation with virus 0.009 mg/ml (initial 0.019 mg/ml; after final dilution 0.0045 µg/ml)): 2% | % Neutralization ([1]; Batch K: [CTC96] during incubation with virus 0.0045 mg/ml (initial 0.009 mg/ml; after final dilution 0.0023 ng/ml)): 1% | effect on graft size ([2]; 0.05% concentration): effective | cGMD of the Grafts, Lower Quartile ([2]; CTC 96 0.05%): 1.94 mm | cGMD of the Grafts, Median ([2]; CTC 96 0.05%): 2.01 mm | cGMD of the Grafts, Upper Quartile ([2]; CTC 96 0.05%): 2.13 mm | cGMD of the Grafts, Lower Quartile ([2]; CTC 96 0.2%): 1.70 mm | cGMD of the Grafts, Median ([2]; CTC 96 0.2%): 1.88 mm | cGMD of the Grafts, Upper Quartile ([2]; CTC 96 0.2%): 2.05 mm | cGMD of the Grafts, Lower Quartile ([2]; CTC 96 1%): 1.82 mm | cGMD of the Grafts, Median ([2]; CTC 96 1%): 1.94 mm | cGMD of the Grafts, Upper Quartile ([2]; CTC 96 1%): 2.08 mm | HPV-11-induced growth of the grafts ([2]; regardless of the concentration used): limited the HPV-11-inducted growth of the grafts | Composite Geometric Mean Diameters (cGMD) of the Grafts, Means ([2]; virus exposed 1 hour to CTC 96 0.05%): 2.02 mm | Composite Geometric Mean Diameters (cGMD) of the Grafts, Means ([2]; virus exposed 1 hour to CTC 96 0.2%): 1.86 mm | Composite Geometric Mean Diameters (cGMD) of the Grafts, Means ([2]; virus exposed 1 hour to CTC 96 1%): 1.95 mm
